Values quoted from earlier work as cited in patent US10499664B2, “Fish feed formulation of Hypericum perforatum, Rosamarinus officianalis or a mixture thereof” (UNIVERSIDAD DE SANTIAGO DE CHILE, priority 2015, dated 2019).

Columns and labels:
Details in all cases: pre-treatment, inflamed mouse ears
IL-1β = test system: IL-1β
TNF-α = test system: TNF-α
COX-2 = test system: COX-2

## CC(C)c1cc2c(c(O)c1O)[C@@]1(C(=O)O)CCCC(C)(C)[C@@H]1CC2 [carnosic acid]
IL-1β
  IL-1β gene expression: reducing their expression
TNF-α
  TNF-α gene expression: reducing their expression
COX-2
  COX-2 inhibition: selectively inhibiting

## CC(C)c1cc2c(c(O)c1O)[C@@]13CCCC(C)(C)[C@@H]1C[C@@H]2OC3=O [carnosol]
IL-1β
  IL-1β gene expression: reducing their expression
TNF-α
  TNF-α gene expression: reducing their expression
COX-2
  COX-2 inhibition: selectively inhibiting
